Test results from patent US9480259B2, “Pyrazolopyrans having herbicidal and pharmaceutical properties” (BASF SE, priority 2012, dated 2016).

Molecular target: Arabidopsis thaliana SHMT
Test: SHMT activity assay (ED50 SHMT), coupled with N5,N10-CH2-THF dehydrogenase, NADH at 340 nm
Type: biochemical
Settings: Table 2; values given as upper bounds
Method in brief: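 His-tagged SHMT purified on Ni-NTA. NADH formation followed at 340 nm for 30 min; ED50 from inhibition of initial velocity.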

SMILES | EC50 [nM]
Cc1n[nH]c2c1C(c1cc(C#N)cc(-c3ccc(C(=O)O)cc3)c1)(C1CCC1)C(C#N)=C(N)O2 (stereo not shown) [Compound 2.460] | < 10
Cc1n[nH]c2c1C(c1cc(C#N)cc(-c3cccc(C(=O)O)c3)c1)(C1CCC1)C(C#N)=C(N)O2 (stereo not shown) [Compound 2.461] | < 10
COc1c(F)cc(-c2cc(C#N)cc(C3(C4CCC4)C(C#N)=C(N)Oc4[nH]nc(C)c43)c2)cc1F (stereo not shown) [Compound 2.463] | < 10
COc1ccc(C2(C3CCC3)C(C#N)=C(N)Oc3[nH]nc(C)c32)cc1C#N (stereo not shown) [Compound 2.464] | < 10
N#CC1=C(N)Oc2[nH]nc(CO)c2C1(c1cc(C(F)(F)F)cc(C(F)(F)F)c1)C1(F)CC1 (stereo not shown) [Compound 2.465] | < 100
CCC1(c2ccc(C)c(Br)c2)C(C#N)=C(N)Oc2[nH]nc(C)c21 (stereo not shown) [Compound 2.466] | < 100
CCC1(c2cc(Cl)cc(Br)c2)C(C#N)=C(N)Oc2[nH]nc(C)c21 (stereo not shown) [Compound 2.468] | < 10
CCC1(c2cc(C)cc(Br)c2)C(C#N)=C(N)Oc2[nH]nc(C)c21 (stereo not shown) [Compound 2.469] | < 10
Cc1n[nH]c2c1C(c1cc(C#N)cc(OCC#N)c1)(C1CCC1)C(C#N)=C(N)O2 (stereo not shown) [Compound 2.471] | < 10
CCC1(c2ccc(Br)c(Cl)c2)C(C#N)=C(N)Oc2[nH]nc(C)c21 (stereo not shown) [Compound 2.472] | < 100
CCC1(c2cc(Br)c(C)c(Br)c2)C(C#N)=C(N)Oc2[nH]nc(C)c21 (stereo not shown) [Compound 2.473] | < 10
Cc1n[nH]c2c1C(c1cc(OCc3nnn[nH]3)cc(C(F)(F)F)c1)(C1CCC1)C(C#N)=C(N)O2 (stereo not shown) [Compound 2.474] | < 10
Cc1n[nH]c2c1C(c1cc(C#N)cc(OCc3nnn[nH]3)c1)(C1CCC1)C(C#N)=C(N)O2 (stereo not shown) [Compound 2.475] | < 10
COCOc1cc(C(F)(F)F)cc(C2(C3CCC3)C(C#N)=C(N)Oc3[nH]nc(C)c32)c1 (stereo not shown) [Compound 2.476] | < 10
COCOc1cc(C#N)cc(C2(C3CCC3)C(C#N)=C(N)Oc3[nH]nc(C)c32)c1 (stereo not shown) [Compound 2.477] | < 10
CCOC(=O)COc1cc(Br)cc(C2(C3(F)CC3)C(C#N)=C(N)Oc3[nH]nc(C)c32)c1 (stereo not shown) [Compound 2.479] | < 100
CCOC(=O)COc1cc(Cl)cc(C2(C3CCC3)C(C#N)=C(N)Oc3[nH]nc(C)c32)c1 (stereo not shown) [Compound 2.480] | < 100
Cc1n[nH]c2c1C(c1cc(Cl)cc(Oc3ccc(O)cc3[N+](=O)[O-])c1)(C1CCC1)C(C#N)=C(N)O2 (stereo not shown) [Compound 2.481] | < 10
Cc1n[nH]c2c1C(c1cc(Cl)cc(-c3cccc(C(=O)O)c3)c1)(C1CCC1)C(C#N)=C(N)O2 (stereo not shown) [Compound 2.482] | < 10
Cc1n[nH]c2c1C(c1cc(Cl)cc(-c3ccc(C(=O)O)cc3)c1)(C1CCC1)C(C#N)=C(N)O2 (stereo not shown) [Compound 2.483] | < 10
Cc1n[nH]c2c1C(c1cc(C#N)cc(-c3cc(F)c(O)c(F)c3)c1)(C1CCC1)C(C#N)=C(N)O2 (stereo not shown) [Compound 2.484] | < 10
Cc1n[nH]c2c1C(c1ccc(O)c(Cl)c1)(C1CCC1)C(C#N)=C(N)O2 (stereo not shown) [Compound 2.485] | < 10
COc1c(Cl)cc(C2(C3CCC3)C(C#N)=C(N)Oc3[nH]nc(C)c32)cc1C#N (stereo not shown) [Compound 2.487] | < 10
Cc1n[nH]c2c1C(c1cc(Cl)cc(N3CCOCC3)c1)(C1CCC1)C(C#N)=C(N)O2 (stereo not shown) [Compound 2.488] | < 10

SMILES | EC50 [nM]
Cc1n[nH]c2c1C(c1cc(Cl)cc(NS(=O)(=O)c3ccccc3)c1)(C1CCC1)C(C#N)=C(N)O2 (stereo not shown) [Compound 2.490] | < 10
COc1c(C#N)cc(C2(C3CCC3)C(C#N)=C(N)Oc3[nH]nc(C)c32)cc1C(F)(F)F (stereo not shown) [Compound 2.491] | < 10
COc1c(Br)cc(C2(C3CCC3)C(C#N)=C(N)Oc3[nH]nc(C)c32)cc1C#N (stereo not shown) [Compound 2.492] | < 10
Cc1n[nH]c2c1C(c1cc(Cl)cc(-c3ccc(-c4nnn[nH]4)cc3)c1)(C1CCC1)C(C#N)=C(N)O2 (stereo not shown) [Compound 2.493] | < 10
Cc1n[nH]c2c1C(c1cccc(-c3cccc(C(=O)O)c3)c1)(C1CCC1)C(C#N)=C(N)O2 (stereo not shown) [Compound 2.494] | < 100
Cc1n[nH]c2c1C(c1cccc(-c3ccc(C(=O)O)cc3)c1)(C1CCC1)C(C#N)=C(N)O2 (stereo not shown) [Compound 2.495] | < 10
Cc1n[nH]c2c1C(c1cc(Cl)cc(CCC(=O)O)c1)(C1(F)CC1)C(C#N)=C(N)O2 (stereo not shown) [Compound 2.497] | < 100
Cc1n[nH]c2c1C(c1cc(Cl)cc(CC(=O)O)c1)(C1(F)CC1)C(C#N)=C(N)O2 (stereo not shown) [Compound 2.498] | < 100
Cc1n[nH]c2c1C(c1cc(Cl)cc(CC(=O)O)c1)(C1CCC1)C(C#N)=C(N)O2 (stereo not shown) [Compound 2.499] | < 10
Cc1n[nH]c2c1C(c1cc(Cl)cc(CCC(=O)O)c1)(C1CCC1)C(C#N)=C(N)O2 (stereo not shown) [Compound 2.500] | < 10
Cc1n[nH]c2c1C(c1cc(Cl)cc(C(F)(F)F)c1)(C1(F)COC1)C(C#N)=C(N)O2 (stereo not shown) [Compound 2.502] | < 10
Cc1n[nH]c2c1C(c1cc(Br)cc(OCC(=O)O)c1)(C1(F)CC1)C(C#N)=C(N)O2 (stereo not shown) [Compound 2.503] | < 10000
Cc1n[nH]c2c1C(c1cc(Cl)c(OCC(=O)O)c(Cl)c1)(C1CCC1)C(C#N)=C(N)O2 (stereo not shown) [Compound 2.504] | < 1000
Cc1n[nH]c2c1C(c1cc(Br)cc(OCC(=O)O)c1)(C1CCC1)C(C#N)=C(N)O2 (stereo not shown) [Compound 2.507] | < 10000
Cc1n[nH]c2c1C(c1cc(O)cc(Cl)c1)(C1CCC1)C(C#N)=C(N)O2 (stereo not shown) [Compound 2.508] | < 10000
COC(=O)c1cc(-c2cc(C#N)cc(C3(C4CCC4)C(C#N)=C(N)Oc4[nH]nc(C)c43)c2)ccc1Cl (stereo not shown) [Compound 2.509] | < 10
Cc1n[nH]c2c1C(c1cc(C#N)cc(-c3cccc(C(=O)O)c3)c1)(C1(F)CC1)C(C#N)=C(N)O2 (stereo not shown) [Compound 2.510] | < 10
Cc1n[nH]c2c1C(c1cc(C#N)cc(-c3cccc(C(=O)O)c3)c1)(C1(F)CC1)C(C#N)=C(N)O2 (stereo not shown) [Compound 2.511] | < 10
Cc1n[nH]c2c1C(c1cc(Cl)cc(-c3cccc(C#N)c3)c1)(C1CCC1)C(C#N)=C(N)O2 (stereo not shown) [Compound 2.512] | < 10
COC(=O)c1cc(F)cc(-c2cc(C#N)cc(C3(C4CCC4)C(C#N)=C(N)Oc4[nH]nc(C)c43)c2)c1 (stereo not shown) [Compound 2.513] | < 10
Cc1n[nH]c2c1C(c1cc(Cl)cc(-c3cccc(-c4nnn[nH]4)c3)c1)(C1CCC1)C(C#N)=C(N)O2 (stereo not shown) [Compound 2.515] | < 10
COC(=O)c1cc(Cl)cc(-c2cc(C#N)cc(C3(C4CCC4)C(C#N)=C(N)Oc4[nH]nc(C)c43)c2)c1 (stereo not shown) [Compound 2.517] | < 10
Cc1n[nH]c2c1C(c1cc(C#N)cc(-c3ccc(C(=O)O)cc3)c1)(C(C)C)C(C#N)=C(N)O2 (stereo not shown) [Compound 2.519] | < 10
CCc1n[nH]c2c1C(c1cc(C#N)cc(C#N)c1)(C(C)C)C(C#N)=C(N)O2 (stereo not shown) [Compound 2.520] | < 10

SMILES | EC50 [nM]
COC(=O)c1ccc(-c2cc(C#N)cc(C3(C4CCC4)C(C#N)=C(N)Oc4[nH]nc(C)c43)c2)cc1OC (stereo not shown) [Compound 2.522] | < 10
COC(=O)CCc1cccc(-c2cc(C#N)cc(C3(C4CCC4)C(C#N)=C(N)Oc4[nH]nc(C)c43)c2)c1 (stereo not shown) [Compound 2.523] | < 10
COC(=O)Cc1cccc(-c2cc(C#N)cc(C3(C4CCC4)C(C#N)=C(N)Oc4[nH]nc(C)c43)c2)c1 (stereo not shown) [Compound 2.524] | < 10
COC(=O)CCc1cccc(-c2cc(C#N)cc(C3(C4CCC4)C(C#N)=C(N)Oc4[nH]nc(C)c43)c2)c1 (stereo not shown) [Compound 2.525] | < 10
COC(=O)Cc1ccc(-c2cc(C#N)cc(C3(C4CCC4)C(C#N)=C(N)Oc4[nH]nc(C)c43)c2)cc1 (stereo not shown) [Compound 2.526] | < 10
CCC1(c2cc(Cl)cc(C#N)c2)C(C#N)=C(N)Oc2[nH]nc(C)c21 (stereo not shown) [Compound 2.529] | < 10
CCCC1(c2cc(C#N)cc(C(F)(F)F)c2)C(C#N)=C(N)Oc2[nH]nc(C)c21 (stereo not shown) [Compound 2.531] | < 10
CCC1(c2cc(Br)cc(C#N)c2)C(C#N)=C(N)Oc2[nH]nc(C)c21 (stereo not shown) [Compound 2.532] | < 10
CCCC1(c2cc(Cl)cc(C#N)c2)C(C#N)=C(N)Oc2[nH]nc(C)c21 (stereo not shown) [Compound 2.533] | < 10
CCCC1(c2cc(Br)cc(C#N)c2)C(C#N)=C(N)Oc2[nH]nc(C)c21 (stereo not shown) [Compound 2.534] | < 10
CCCC1(c2cc(C#N)cc(C#N)c2)C(C#N)=C(N)Oc2[nH]nc(C)c21 (stereo not shown) [Compound 2.535] | < 10
CCOC(=O)COc1ccc(-c2cc(C#N)cc(C3(C4CCC4)C(C#N)=C(N)Oc4[nH]nc(C)c43)c2)cc1 (stereo not shown) [Compound 2.536] | < 10
Cc1n[nH]c2c1C(c1cc(C#N)cc(-c3ccc(OCC(=O)O)cc3)c1)(C1CCC1)C(C#N)=C(N)O2 (stereo not shown) [Compound 2.538] | < 10
Cc1n[nH]c2c1C(c1cc(Cl)cc(CCc3nnn[nH]3)c1)(C1CCC1)C(C#N)=C(N)O2 (stereo not shown) [Compound 2.539] | < 10
Cc1n[nH]c2c1C(c1ccc(CCC(=O)O)c(Cl)c1)(C1CCC1)C(C#N)=C(N)O2 (stereo not shown) [Compound 2.542] | < 100
Cc1n[nH]c2c1C(c1ccc(CCC(=O)O)c(C(F)(F)F)c1)(C1CCC1)C(C#N)=C(N)O2 (stereo not shown) [Compound 2.543] | < 100
Cc1n[nH]c2c1C(c1ccc(CC(=O)O)c(C(F)(F)F)c1)(C1CCC1)C(C#N)=C(N)O2 (stereo not shown) [Compound 2.544] | < 100
Cc1n[nH]c2c1C(c1cc(C#N)cc(-c3cc(F)cc(C(=O)O)c3)c1)(C1CCC1)C(C#N)=C(N)O2 (stereo not shown) [Compound 2.545] | < 10
COC(=O)c1ccc(-c2cc(C#N)cc(C3(C4CCC4)C(C#N)=C(N)Oc4[nH]nc(C)c43)c2)cc1Cl (stereo not shown) [Compound 2.546] | < 100
COc1ccc(-c2cc(C#N)cc(C3(C4CCC4)C(C#N)=C(N)Oc4[nH]nc(C)c43)c2)cc1C(F)(F)F (stereo not shown) [Compound 2.547] | < 10
COC(=O)c1cc(OC)cc(-c2cc(C#N)cc(C3(C4CCC4)C(C#N)=C(N)Oc4[nH]nc(C)c43)c2)c1 (stereo not shown) [Compound 2.548] | < 10
COC(=O)c1cc(C(=O)OC)cc(-c2cc(C#N)cc(C3(C4CCC4)C(C#N)=C(N)Oc4[nH]nc(C)c43)c2)c1 (stereo not shown) [Compound 2.549] | < 100
